Assay results from patent US20250215101A1, “DR5 Agonist and PLK1 Inhibitor or CDK Inhibitor Combination Therapy” (Inhibrx Biosciences, Inc., priority 2022, published 2025).
Like-named read-outs stand apart in the source and are kept apart here.

Columns and labels:
Assay type in all cases: cell-based
[1] = tested on: SW837; assay: Cell viability (CellTiter-Glo) cytotoxicity assay, INBRX-109 x onvansertib matrix, 48 h; details: for EC50: Homo sapiens, SW837, SW837; for Max Cytotox at 200 nM: SW837
Protocol: (§1) Monolayer cultures of each cell line were harvested for compound screening as detailed below.
(§2) Onvansertib: A 10 mg stock of onvansertib was purchased from Selleck Chemicals and was resuspended to 10 mM in DMSO. This was then aliquoted and stored at −80° C. Aliquots were thawed immediately prior to dilution and use in the assay. A 500× master plate of serial dilutions (6-point 5-fold dilutions in 100% DMSO starting at 500 μM, plus a DMSO only control) was prepared and mixed gently with a pipette. To generate a 5× working dilution plate of onvansertib, a 1:100 dilution was performed from the 500× plate into complete media (EMEM).
(§3) Also on day 2, test and control articles were added.
(§4) On day 4, viability measurements were taken. […] Data was graphed in GraphPad Prism 9.

[2] = tested on: SW620; assay: as above; details: for EC50: Homo sapiens, SW-620, SW620; for Max Cytotox at 200 nM: SW620
Protocol: as §1, §2, §3, §4

[3] = tested on: LS174T; assay: as above; details: for EC50: Homo sapiens
Protocol: as §1, §2, §3, §4

[4] = tested on: SW1463; assay: as above; details: for EC50: Homo sapiens, SW1463, SW1463; for Max Cytotox at 200 nM: SW1463
Protocol: as §1, §2, §3, §4

[5] = tested on: LS411N; assay: as above; details: for EC50: Homo sapiens, LS-411N
Protocol: as §1, §2, §3, §4

[6] = tested on: HT-29; assay: as above; details: for Max Cytotox at 200 nM: HT-29; for EC50: Homo sapiens, HT-29, HT-29
Protocol: as §1, §2, §3, §4

[7] = tested on: BxPC-3; assay: Cytotoxicity assay, pancreatic cell line panel, onvansertib +/- 1 nM INBRX-109; details: for Max Cytotox at 600 nM: BxPC-3; for EC50: Homo sapiens, BXPC-3, BxPC-3
Protocol: as §1, §3, §4
(§5) The results for a panel of colorectal cancer cell lines are shown in Table 3 and FIGS. 4-6, and the results for a panel of pancreatic cell lines are shown in Table 4 and FIGS. 7 and 8.

[8] = tested on: CFPAC-1; assay: as above; details: for Max Cytotox at 600 nM: CFPAC-1; for EC50: Homo sapiens, CFPAC-1, CFPAC-1
Protocol: as §1, §3, §4, §5

[9] = tested on: HPAF-II; assay: as above; details: for EC50: Homo sapiens
Protocol: as §1, §3, §4, §5

[10] = tested on: PSN-1; assay: as above; details: for EC50: Homo sapiens, PSN1, PSN-1; for Max Cytotox at 600 nM: PSN-1
Protocol: as §1, §3, §4, §5

[11] = tested on: SU.86.86; assay: as above; details: for EC50: Homo sapiens, SU.86.86, SU.86.86; for Max Cytotox at 600 nM: SU.86.86
Protocol: as §1, §3, §4, §5

[12] = tested on: SW-1990; assay: as above; details: for EC50: Homo sapiens, SW1990, SW-1990; for Max Cytotox at 600 nM: SW-1990
Protocol: as §1, §3, §4, §5

[13] = tested on: MIA PaCa-2; assay: as above; details: for EC50: Homo sapiens, MIA PaCa-2, MIA PaCa-2; for Max Cytotox at 600 nM: MIA PaCa-2
Protocol: as §1, §3, §4, §5

[14] = tested on: Capan-1; assay: as above; details: for Max Cytotox at 600 nM: Capan-1; for EC50: Homo sapiens, CAPAN-1, Capan-1
Protocol: as §1, §3, §4, §5

[15] = tested on: KP4; assay: as above; details: for EC50: Homo sapiens, KP-4, KP4; for Max Cytotox at 600 nM: KP4
Protocol: as §1, §3, §4, §5

[16] = tested on: Capan-2; assay: as above; details: for Max Cytotox at 600 nM: Capan-2; for EC50: Homo sapiens, Capan-2, Capan-2
Protocol: as §1, §3, §4, §5

[17] = tested on: Panc 05.04; assay: as above; details: for EC50: Panc 05.04, Panc 05.04; for Max Cytotox at 600 nM: Panc 05.04
Protocol: as §1, §3, §4, §5

[18] = tested on: HuP-T4; assay: as above; details: for EC50: Homo sapiens, HuP-T4, HuP-T4; for Max Cytotox at 600 nM: HuP-T4
Protocol: as §1, §3, §4, §5

[19] = tested on: AsPC-1; assay: as above; details: for Max Cytotox at 600 nM: AsPC-1; for EC50: Homo sapiens, ASPC1, AsPC-1
Protocol: as §1, §3, §4, §5

[20] = tested on: Panc 10.05; assay: as above; details: for EC50: Homo sapiens, Panc1005, Panc 10.05; for Max Cytotox at 600 nM: Panc 10.05
Protocol: as §1, §3, §4, §5

[21] = tested on: PANC-1; assay: as above; details: for EC50: Homo sapiens, PANC-1, PANC-1; for Max Cytotox at 600 nM: PANC-1
Protocol: as §1, §3, §4, §5

[22] = tested on: PL45; assay: as above; details: for EC50: PL45, PL45; for Max Cytotox at 600 nM: PL45
Protocol: as §1, §3, §4, §5

[23] = tested on: Panc 03.27; assay: as above; details: for EC50: Homo sapiens, PANC-03-27, Panc 03.27; for Max Cytotox at 600 nM: Panc 03.27
Protocol: as §1, §3, §4, §5

SMILES: CN1CCN(c2ccc(OC(F)(F)F)c(Nc3ncc4c(n3)-c3c(c(C(N)=O)nn3CCO)CC4)c2)CC1 [Onvansertib]
- EC50 ([1]; onvansertib + 1 nM INBRX-109): ~0.0432 µM
- EC50 ([1]; onvansertib only): 27.2 µM
- Max Cytotox at 200 nM ([1]; onvansertib + 1 nM INBRX-109): 80.64%
- Max Cytotox at 200 nM ([1]; onvansertib only): 27.17%
- EC50 ([2]; onvansertib + 1 nM INBRX-109): 0.0305 µM
- EC50 ([2]; onvansertib only): 0.0313 µM
- Max Cytotox at 200 nM ([2]; onvansertib + 1 nM INBRX-109): 87.53%
- Max Cytotox at 200 nM ([2]; onvansertib only): 51.37%
- EC50 ([3]; onvansertib + 1 nM INBRX-109): ~0.0547 µM
- EC50 ([3]; onvansertib only): ~0.197 µM
- Max Cytotox at 200 nM ([3]; onvansertib + 1 nM INBRX-109): 79.32%
- Max Cytotox at 200 nM ([3]; onvansertib only): 16.93%
- EC50 ([4]; onvansertib + 1 nM INBRX-109): ~0.0382 µM
- EC50 ([4]; onvansertib only): 0.124 µM
- Max Cytotox at 200 nM ([4]; onvansertib + 1 nM INBRX-109): 74.39%
- Max Cytotox at 200 nM ([4]; onvansertib only): 25.79%
- EC50 ([5]; onvansertib + 1 nM INBRX-109, read-out: EC50): ~0.0103 µM
- EC50 ([5]; onvansertib only, read-out: EC50): ~4150 µM
- Max Cytotox at 200 nM ([5]; onvansertib + 1 nM INBRX-109): 84.45%
- Max Cytotox at 200 nM ([5]; onvansertib only): 12.35%
- Max Cytotox at 200 nM ([6]; onvansertib + 1 nM INBRX-109): 94.63%
- Max Cytotox at 200 nM ([6]; onvansertib only): 5.54%
- EC50 ([6]; onvansertib + 1 nM INBRX-109): 0.0214 µM
- EC50 ([6]; onvansertib only): ~0.0023 µM
- Max Cytotox at 600 nM ([7]; onvansertib + 1 nM INBRX-109): 91.8%
- Max Cytotox at 600 nM ([7]; onvansertib only): 70.1%
- EC50 ([7]; onvansertib + 1 nM INBRX-109): 0.119 µM
- EC50 ([7]; onvansertib only): 0.139 µM
- Max Cytotox at 600 nM ([8]; onvansertib + 1 nM INBRX-109): 86.4%
- Max Cytotox at 600 nM ([8]; onvansertib only): 45.3%
- EC50 ([8]; onvansertib + 1 nM INBRX-109): 0.154 µM
- EC50 ([8]; onvansertib only): 0.135 µM
- EC50 ([9]; onvansertib + 1 nM INBRX-109): 0.0519 µM
- EC50 ([9]; onvansertib only): 0.0633 µM
- Max Cytotox at 600 nM ([9]; onvansertib + 1 nM INBRX-109): 68.2%
- Max Cytotox at 600 nM ([9]; onvansertib only): 27.2%
- EC50 ([10]; onvansertib + 1 nM INBRX-109): 0.063 µM
- EC50 ([10]; onvansertib only): 0.0853 µM
- Max Cytotox at 600 nM ([10]; onvansertib + 1 nM INBRX-109): 98.0%
- Max Cytotox at 600 nM ([10]; onvansertib only): 83.2%
- EC50 ([11]; onvansertib + 1 nM INBRX-109): 0.0914 µM
- EC50 ([11]; onvansertib only): 0.629 µM
- Max Cytotox at 600 nM ([11]; onvansertib + 1 nM INBRX-109): 98.9%
- Max Cytotox at 600 nM ([11]; onvansertib only): 30.5%
- EC50 ([12]; onvansertib + 1 nM INBRX-109): 0.598 µM
- EC50 ([12]; onvansertib only): 0.7 µM
- Max Cytotox at 600 nM ([12]; onvansertib + 1 nM INBRX-109): 68.7%
- Max Cytotox at 600 nM ([12]; onvansertib only): 13.4%
- EC50 ([13]; onvansertib + 1 nM INBRX-109): 0.0813 µM
- EC50 ([13]; onvansertib only): 0.179 µM
- Max Cytotox at 600 nM ([13]; onvansertib + 1 nM INBRX-109): 96.4%
- Max Cytotox at 600 nM ([13]; onvansertib only): 67.0%
- Max Cytotox at 600 nM ([14]; onvansertib + 1 nM INBRX-109): 94.3%
- Max Cytotox at 600 nM ([14]; onvansertib only): 27.8%
- EC50 ([14]; onvansertib + 1 nM INBRX-109): 0.079 µM
- EC50 ([14]; onvansertib only): 0.186 µM
- EC50 ([15]; onvansertib + 1 nM INBRX-109): 0.0824 µM
- EC50 ([15]; onvansertib only): 0.105 µM
- Max Cytotox at 600 nM ([15]; onvansertib + 1 nM INBRX-109): 97.8%
- Max Cytotox at 600 nM ([15]; onvansertib only): 74.7%
- Max Cytotox at 600 nM ([16]; onvansertib + 1 nM INBRX-109): 46.2%
- Max Cytotox at 600 nM ([16]; onvansertib only): 3.9%
- EC50 ([16]; onvansertib + 1 nM INBRX-109): 0.135 µM
- EC50 ([16]; onvansertib only): 0.15 µM
- EC50 ([17]; onvansertib + 1 nM INBRX-109): 0.0611 µM
- EC50 ([17]; onvansertib only): 0.205 µM
- Max Cytotox at 600 nM ([17]; onvansertib + 1 nM INBRX-109): 97.4%
- Max Cytotox at 600 nM ([17]; onvansertib only): 44.4%
- EC50 ([18]; onvansertib + 1 nM INBRX-109): 0.0351 µM
- EC50 ([18]; onvansertib only): 0.138 µM
- Max Cytotox at 600 nM ([18]; onvansertib + 1 nM INBRX-109): 85.3%
- Max Cytotox at 600 nM ([18]; onvansertib only): 33.7%
- Max Cytotox at 600 nM ([19]; onvansertib + 1 nM INBRX-109): 60.0%
- Max Cytotox at 600 nM ([19]; onvansertib only): 19.9%
- EC50 ([19]; onvansertib + 1 nM INBRX-109): 0.23 µM
- EC50 ([19]; onvansertib only): 0.444 µM
- EC50 ([20]; onvansertib + 1 nM INBRX-109): 0.0817 µM
- EC50 ([20]; onvansertib only): 0.0819 µM
- Max Cytotox at 600 nM ([20]; onvansertib + 1 nM INBRX-109): 83.3%
- Max Cytotox at 600 nM ([20]; onvansertib only): 47.2%
- EC50 ([21]; onvansertib + 1 nM INBRX-109): 0.121 µM
- EC50 ([21]; onvansertib only): 0.152 µM
- Max Cytotox at 600 nM ([21]; onvansertib + 1 nM INBRX-109): 87.2%
- Max Cytotox at 600 nM ([21]; onvansertib only): 36.2%
- EC50 ([22]; onvansertib + 1 nM INBRX-109): 0.0681 µM
- EC50 ([22]; onvansertib only): 0.0836 µM
- Max Cytotox at 600 nM ([22]; onvansertib + 1 nM INBRX-109): 82.2%
- Max Cytotox at 600 nM ([22]; onvansertib only): 56.5%
- EC50 ([23]; onvansertib + 1 nM INBRX-109): 0.09 µM
- EC50 ([23]; onvansertib only): 0.121 µM
- Max Cytotox at 600 nM ([23]; onvansertib + 1 nM INBRX-109): 87.5%
- Max Cytotox at 600 nM ([23]; onvansertib only): 36.7%
